This is an account of results in ChEMBL document CHEMBL3797077, “Design and synthesis of N-(4-aminopyridin-2-yl)amides as B-Raf(V600E) inhibitors” (Bioorg Med Chem Lett, 2016).

Test [1] is described as follows: Cytotoxicity against human COLO205 cells harboring B-Raf V600E mutant assessed as growth inhibition after 72 hrs by MTT assay. The test is classed as functional, cell-based. The following applies: COLO 205, 72 h. On the technique in general: Tetrazolium dyes change colour on reduction, which living cells bring about.
Test [2] has as its target Serine/threonine-protein kinase B-raf (Homo sapiens, UniProt P15056). The experiment in a line: Inhibition of recombinant wild type full length human GST-tagged B-Raf expressed in baculovirus expression system using Z'-LYTE Ser/Thr3 peptide as substrate incubated for 1 hr by FRET-based Z'-LYTE assay.
A further test concerns HT-29. In words: Cytotoxicity against human HT-29 cells harboring B-Raf V600E mutant assessed as growth inhibition after 72 hrs by MTT assay. The test is classed as functional, cell-based. The following applies: HT-29, 72 h.
Test [3] in a line: Cytotoxicity against human HCT116 cells harboring wild type B-Raf assessed as growth inhibition after 72 hrs by MTT assay. The test is classed as functional, cell-based. The following applies: HCT-116, 72 h.
Test [4] addresses Serine/threonine-protein kinase B-raf (Homo sapiens, UniProt P15056, V600E). In words: Inhibition of recombinant human N-terminal GST-tagged B-Raf V600E mutant expressed in baculovirus expression system using Z'-LYTE Ser/Thr3 peptide as substrate incubated for 1 hr by FRET-based Z'-LYTE assay.
In another test the test system is COLO 205. In words: Selectivity ratio of IC50 for human HCT116 cells harboring wild type B-Raf to IC50 for human COLO205 cells harboring B-Raf V600E mutant. The test is classed as functional.
The subject of a further test is HCT-116. In words: Selectivity ratio of IC50 for human HCT116 cells harboring wild type B-Raf to IC50 for human HT-29 cells harboring B-Raf V600E mutant. The test is classed as functional.

Sequence of Serine/threonine-protein kinase B-raf (Homo sapiens, UniProt P15056, V600E) (P15056 2-766 V600E limits assumed): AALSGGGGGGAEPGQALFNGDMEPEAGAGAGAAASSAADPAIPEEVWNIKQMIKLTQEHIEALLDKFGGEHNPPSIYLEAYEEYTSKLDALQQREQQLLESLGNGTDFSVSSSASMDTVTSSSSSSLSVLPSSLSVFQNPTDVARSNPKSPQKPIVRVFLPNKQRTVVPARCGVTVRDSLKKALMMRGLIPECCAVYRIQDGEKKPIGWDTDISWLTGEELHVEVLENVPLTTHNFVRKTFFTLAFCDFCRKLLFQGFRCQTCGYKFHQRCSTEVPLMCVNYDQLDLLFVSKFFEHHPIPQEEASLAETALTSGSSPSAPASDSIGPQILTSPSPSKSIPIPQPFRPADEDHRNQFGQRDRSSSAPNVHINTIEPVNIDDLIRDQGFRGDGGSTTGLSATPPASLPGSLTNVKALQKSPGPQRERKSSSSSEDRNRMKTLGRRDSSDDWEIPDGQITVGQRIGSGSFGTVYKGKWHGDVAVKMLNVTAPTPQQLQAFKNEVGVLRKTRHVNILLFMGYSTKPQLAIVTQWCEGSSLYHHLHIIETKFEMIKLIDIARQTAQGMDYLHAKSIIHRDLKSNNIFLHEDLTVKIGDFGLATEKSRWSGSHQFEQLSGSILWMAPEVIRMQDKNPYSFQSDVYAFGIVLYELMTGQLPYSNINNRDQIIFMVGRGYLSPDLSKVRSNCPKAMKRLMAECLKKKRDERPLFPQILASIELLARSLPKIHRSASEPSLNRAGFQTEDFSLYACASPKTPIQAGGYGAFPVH
Sequence of Serine/threonine-protein kinase B-raf (Homo sapiens, UniProt P15056) (P15056 whole entry): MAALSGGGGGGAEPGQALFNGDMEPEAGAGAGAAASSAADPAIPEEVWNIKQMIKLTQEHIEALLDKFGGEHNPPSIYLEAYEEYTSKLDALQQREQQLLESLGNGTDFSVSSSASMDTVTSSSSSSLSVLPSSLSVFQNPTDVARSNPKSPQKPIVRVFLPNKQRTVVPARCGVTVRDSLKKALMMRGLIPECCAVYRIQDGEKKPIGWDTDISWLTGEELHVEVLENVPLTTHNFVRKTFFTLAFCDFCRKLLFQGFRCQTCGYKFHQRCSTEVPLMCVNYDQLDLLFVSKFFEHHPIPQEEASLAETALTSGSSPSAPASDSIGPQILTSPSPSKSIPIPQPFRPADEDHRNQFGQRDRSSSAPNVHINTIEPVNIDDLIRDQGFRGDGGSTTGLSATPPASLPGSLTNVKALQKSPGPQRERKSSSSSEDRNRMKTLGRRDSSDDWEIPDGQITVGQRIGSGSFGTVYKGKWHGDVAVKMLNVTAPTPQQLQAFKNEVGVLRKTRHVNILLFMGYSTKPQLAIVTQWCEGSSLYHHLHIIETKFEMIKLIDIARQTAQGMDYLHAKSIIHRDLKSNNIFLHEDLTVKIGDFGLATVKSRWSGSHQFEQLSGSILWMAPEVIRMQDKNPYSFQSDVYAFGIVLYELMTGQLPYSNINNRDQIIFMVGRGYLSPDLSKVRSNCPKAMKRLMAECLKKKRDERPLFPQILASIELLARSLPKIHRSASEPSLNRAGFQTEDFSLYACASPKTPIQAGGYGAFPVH

As to `N#Cc1c(Oc2ccc(F)c(NC(=O)Cc3cccc(C(F)(F)F)c3)c2)ccc2nc(NC(=O)C3CC3)sc12`, the IC50 (in general, the point on the concentration scale where inhibition reaches its midpoint) in test [1] was 25 nM; in test [2], 77 nM; in the test on HT-29 it was 33 nM; in test [3], 362 nM.

Take `CCC(=O)Nc1cc(Nc2cccc(NC(=O)c3cccc(C4CC4)c3)c2)ccn1`: in test [4], the IC50 stood at 125 nM.

`O=C(Nc1cccc(Nc2ccnc(NC(=O)C3CCCCC3)c2)c1)c1cccc(C2CC2)c1`: the IC50 in test [4] was 563 nM.

On to `CC(C)(C)c1cccc(C(=O)Nc2cccc(Nc3ccnc(NC(=O)C4CC4)c3)c2)c1`, for which the IC50 in test [1] was determined as 787 nM; in test [2] it was 240 nM; in the test on HT-29, 991 nM; in test [4], 20 nM; in test [3] it was 1380 nM.

With `O=C(Nc1cccc(Nc2ccnc(NC(=O)C3CC3)c2)c1)c1cccc(Cl)c1`, the IC50 in test [4] was 785 nM.

Regarding `O=C(Nc1cccc(Nc2ccnc(NC(=O)C3CC3)c2)c1)c1cccc([N+](=O)[O-])c1`, the IC50 in test [4] is 1510 nM.

On to `CC(C)(C#N)c1cccc(C(=O)Nc2cccc(Nc3ccnc(NC(=O)C4CC4)c3)c2)c1`, for which the IC50 in test [1] was determined as 136 nM; in test [2] it was 476 nM; with HT-29 it was 94 nM; in test [4], 38 nM; in test [3] it was 1090 nM. The “Ratio IC50” value in the test with COLO 205 and in the test with HCT-116 was 12 in each case.

`O=C(Nc1cccc(Nc2ccnc(NC(=O)C3CC3)c2)c1)c1ccc(C(F)(F)F)cc1`: the IC50 in test [4] is over 10000 nM.

`O=C(Nc1cccc(Nc2ccnc(NC(=O)C3CC3)c2)c1)c1cccc(C2CC2)c1`: the IC50 was 111 nM in test [1]; 453 nM in test [2]; 92 nM with HT-29; 35 nM in test [4]; 221 nM in test [3].

On to `CCc1cccc(C(=O)Nc2cccc(Nc3ccnc(NC(=O)C4CC4)c3)c2)c1`, for which the IC50 in test [4] turned out to be 110 nM.

Regarding `O=C(Nc1cccc(Nc2ccnc(NC(=O)C3CCC3)c2)c1)c1cccc(C2CC2)c1`, the IC50 in test [4] was found to be 182 nM.

Turning to `N#Cc1cccc(C(=O)Nc2cccc(Nc3ccnc(NC(=O)C4CC4)c3)c2)c1`, in test [4], the IC50 was 3530 nM.

For the compound `O=C(Nc1cccc(Nc2ccnc(NC(=O)C3CC3)c2)c1)c1cccc(C(F)(F)F)c1`, the IC50 in test [4] amounted to 141 nM.

As for `O=C(Nc1cccc(Nc2ccnc(NC(=O)C3CC3)c2)c1)c1ccccc1C(F)(F)F`, the IC50 in test [4] was over 10000 nM.

As for `CC(C)(C)C(=O)Nc1cc(Nc2cccc(NC(=O)c3cccc(C4CC4)c3)c2)ccn1`, the IC50 in test [4] was found to be 1030 nM.

As to `CC(=O)Nc1cc(Nc2cccc(NC(=O)c3cccc(C4CC4)c3)c2)ccn1`, the IC50 came to 131 nM in test [1]; 1200 nM in test [2]; 236 nM in the test with HT-29; 50 nM in test [4]; 367 nM in test [3].

Consider `CC(C)c1cccc(C(=O)Nc2cccc(Nc3ccnc(NC(=O)C4CC4)c3)c2)c1`, for which the IC50 in test [1] came out at 444 nM; in test [2], 148 nM; with HT-29 it was 462 nM; in test [4], 13 nM; in test [3] it was 1060 nM.

For the compound `N#CC1(c2cccc(C(=O)Nc3cccc(Nc4ccnc(NC(=O)C5CC5)c4)c3)c2)CC1`, the IC50 in test [1] came out at 725 nM; in test [2] it was 2030 nM; in the test with HT-29 it was 791 nM; in test [4], 79 nM; in test [3], 1350 nM.

As to `CC(C)C(=O)Nc1cc(Nc2cccc(NC(=O)c3cccc(C4CC4)c3)c2)ccn1`, the IC50 in test [4] was 420 nM.

As for `Cc1cccc(C(=O)Nc2cccc(Nc3ccnc(NC(=O)C4CC4)c3)c2)c1`, the IC50 in test [4] came to 1210 nM.

For the compound `O=C(Nc1cccc(Nc2ccnc(NC(=O)C3CCCC3)c2)c1)c1cccc(C2CC2)c1`, the concentration for half-maximal inhibition (IC50) in test [4] worked out at 434 nM.

With `CCCS(=O)(=O)Nc1ccc(F)c(C(=O)c2c[nH]c3ncc(-c4ccc(Cl)cc4)cc23)c1F` [VEMURAFENIB], the values for the IC50 (in test [1]; in the test on HT-29; in test [3]) were 44 nM, 156 nM and 14600 nM, respectively.
